Assay results published in patent publication US20110033837A1 (priority 2007, published 2011).

Key:
[1] = system: CXCR4-tropic virus strains; details: cited from earlier work
[2] = system: dualtropic viruses that use CCR5 and CXCR4; details: human PBMC; cited from earlier work
primary HIV-1 isolates = details: isolates P-31, P-41-0, P41-28 and P-51; IsnoR5 clone 2 cells; 1 μg/ml AMD 3100
Protocol: Virus-containing supernatants, normalized to 5 ng/ml HIV-1 Gag p24, were titrated in the IsnoR5 clones in the absence and presence of 1 μg/ml AMD 3100. After 14 days, cell free supernatants tested for viral Gag protein by p24 antigen capture assay. The number of positive wells was used to determine the TCID50 of the original sample.
Virus isolation was performed as previously described (Holtkamp et al., 2000) except that viral replication was detected using an antigen capture enzyme-linked immunosorbent assay (ELISA) for the HIV-1 Gag p24 core protein. Inactivated supernatants (0.2% Tween 20) were titrated on ELISA plates coated with the Gag-specific monoclonal antibody Ag3.0 (hybridoma kindly provided by Jon Allan, Southwest Foundation, San Antonio, Tex., USA). […] Captured protein was detected using pooled sera from HIV-1 positive individuals followed by a goat antihuman immunoglobulin G-peroxidase conjugate (Sigma-Aldrich, Taufkirchen, Germany). Virus levels were calculated by comparison with a standard HIV-1 supernatant of known p24 Gag concentration.
Virus-containing supernatants were serially diluted in media and aliquoted (50 μl per well, six replicates per dilution) into U-well microtiter plates containing 2×10^5 of IsnoR5 clones 1 or 2 or 4.5×10^5 PBMC from healthy blood donors in 150 μl medium. […]

## c1cc(CN2CCCNCCNCCCNCC2)ccc1CN1CCCNCCNCCCNCC1 [AMD 3100]
[1]
  Infection of cells by CXCR4-tropic virus strains: preventing infection
[2]
  Block of dualtropic viruses: efficiently block
Primary HIV-1 isolates
  Replication of isolates in the presence of AMD 3100 (FIG. 5): all were inhibited from replication
